ChEMBL document CHEMBL1201862, “PubChem BioAssay data set” (2004)
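Tested at 5 concentrations; 48 h exposure; 96-well plates; endpoints linearly interpolated, else capped at highest concentration. GI50 = concentration required for 50% inhibition of growth.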 Calls of active or inactive are those of the source. No stated cut-off is given here; in the data, active = GI50 up to about 1.1 µM and inactive = higher.

Tests used:
Assay in all cases: NCI-60 cell line screen, 48 h
A549 = system: A549
786-0 = system: 786-0
SK-OV-3 = system: SK-OV-3
OVCAR-8 = system: OVCAR-8
NCI-H522 = system: NCI-H522
SK-MEL-2 = system: SK-MEL-2
UO-31 = system: UO-31
SK-MEL-28 = system: SK-MEL-28
MDA-MB-231 = system: MDA-MB-231
CAKI-1 = system: CAKI-1
KM12 = system: KM12
IGROV-1 = system: IGROV-1
NCI-H226 = system: NCI-H226
HT-29 = system: HT-29
UACC-257 = system: UACC-257
M14 = system: M14
COLO 205 = system: COLO 205
EKVX = system: EKVX
HCC 2998 = system: HCC 2998
SK-MEL-5 = system: SK-MEL-5

| Structure (SMILES) | GI50 (A549) | GI50 (786-0) | GI50 (SK-OV-3) | GI50 (OVCAR-8) | GI50 (NCI-H522) | GI50 (SK-MEL-2) | GI50 (UO-31) | GI50 (SK-MEL-28) | GI50 (MDA-MB-231) | GI50 (CAKI-1) | GI50 (KM12) | GI50 (IGROV-1) | GI50 (NCI-H226) | GI50 (HT-29) | GI50 (UACC-257) | GI50 (M14) | GI50 (COLO 205) | GI50 (EKVX) | GI50 (HCC 2998) | GI50 (SK-MEL-5) |
| --- | --- | --- | --- | --- | --- | --- | --- | --- | --- | --- | --- | --- | --- | --- | --- | --- | --- | --- | --- | --- |
| O=c1c2cc(O)c(O)cc2oc2cc(O)c(C3OC(CO)C(O)C(O)C3O)c(O)c12 (stereo not given) | > 100 µM (inactive) | > 100 µM (inactive) | > 100 µM (inactive) | > 100 µM (inactive) | > 100 µM (inactive) | > 100 µM (inactive) | > 100 µM (inactive) | > 100 µM (inactive) | > 100 µM (inactive) | > 100 µM (inactive) | > 100 µM (inactive) | > 100 µM (inactive) | > 100 µM (inactive) | > 100 µM (inactive) | > 100 µM (inactive) | > 100 µM (inactive) | > 100 µM (inactive) | > 100 µM (inactive) | > 100 µM (inactive) | > 100 µM (inactive) |
| Cc1ccc(Nc2nc3ccccc3c(=O)n2N)cc1 | > 100 µM (inactive) | > 100 µM (inactive) | > 100 µM (inactive) | > 100 µM (inactive) | > 100 µM (inactive) | > 100 µM (inactive) | > 100 µM (inactive) | > 100 µM (inactive) | > 100 µM (inactive) | > 100 µM (inactive) | > 100 µM (inactive) | 88.3 µM (inactive) | > 100 µM (inactive) | 78.2 µM (inactive) | > 100 µM (inactive) | > 100 µM (inactive) | > 100 µM (inactive) | > 100 µM (inactive) | > 100 µM (inactive) | > 100 µM (inactive) |
| CCOC(=O)CCN1C(=O)c2c(NC(=O)C(=O)O)cccc2S1(=O)=O | > 100 µM (inactive) | > 100 µM (inactive) | > 100 µM (inactive) | > 100 µM (inactive) | > 100 µM (inactive) | > 100 µM (inactive) | > 100 µM (inactive) | > 100 µM (inactive) | > 100 µM (inactive) | > 100 µM (inactive) | > 100 µM (inactive) | > 100 µM (inactive) | > 100 µM (inactive) | > 100 µM (inactive) | > 100 µM (inactive) | > 100 µM (inactive) | > 100 µM (inactive) | > 100 µM (inactive) | > 100 µM (inactive) | > 10 µM (inactive) |
| O=c1oc2ccc3ccccc3c2cc1-c1cn2c(n1)sc1ccccc12 | > 100 µM (inactive) | > 100 µM (inactive) | > 100 µM (inactive) | > 100 µM (inactive) | > 100 µM (inactive) | > 100 µM (inactive) | > 100 µM (inactive) | > 100 µM (inactive) | > 100 µM (inactive) | > 100 µM (inactive) | > 100 µM (inactive) | > 100 µM (inactive) | > 100 µM (inactive) | > 100 µM (inactive) | > 100 µM (inactive) | > 100 µM (inactive) | > 100 µM (inactive) | 90.8 µM (inactive) | > 100 µM (inactive) | > 100 µM (inactive) |
| Cc1ccc(/N=N/C(=N\c2ccc(F)cc2)c2ccc(N(CCC#N)CCC#N)cc2)cc1 | 45.9 µM (inactive) | > 100 µM (inactive) | > 100 µM (inactive) | 77.4 µM (inactive) | 19.2 µM (inactive) | 62.7 µM (inactive) | > 100 µM (inactive) | > 100 µM (inactive) | > 100 µM (inactive) | > 100 µM (inactive) | 33.3 µM (inactive) | 70.1 µM (inactive) | > 100 µM (inactive) | > 100 µM (inactive) | 30.3 µM (inactive) | > 100 µM (inactive) | 64.4 µM (inactive) | 99.5 µM (inactive) | 46.9 µM (inactive) | 44.1 µM (inactive) |
| COc1cc(OC)c(/C=C\c2cc(/C=C/c3c(OC)cc(OC)cc3OC)c3ccccc3[n+]2C)c(OC)c1 | 3.94 µM (inactive) | 2.2 µM (inactive) | 4.69 µM (inactive) | 1.94 µM (inactive) | 1.96 µM (inactive) | 1.74 µM (inactive) | 7.16 µM (inactive) | 3.39 µM (inactive) | 4.03 µM (inactive) | 6.61 µM (inactive) | 2.98 µM (inactive) | 3.24 µM (inactive) | 5.96 µM (inactive) | 1.83 µM (inactive) | 2.92 µM (inactive) | 2.56 µM (inactive) | 1.67 µM (inactive) | 2.99 µM (inactive) | 3.48 µM (inactive) | 1.31 µM (inactive) |
| O=C(Nc1ccccc1C(=O)NCCCO)/C(=C/c1ccccc1O)NC(=O)c1ccccc1 | > 100 µM (inactive) | 34 µM (inactive) | 51.5 µM (inactive) | > 42.7 µM (inactive) | 25.2 µM (inactive) | 44.3 µM (inactive) | 20.7 µM (inactive) | > 100 µM (inactive) | 26.7 µM (inactive) | > 100 µM (inactive) | 18.4 µM (inactive) | 36.6 µM (inactive) | 39.3 µM (inactive) | > 100 µM (inactive) | > 100 µM (inactive) | 55.6 µM (inactive) | > 100 µM (inactive) | 65.6 µM (inactive) | > 100 µM (inactive) | > 100 µM (inactive) |
| O=C(CCc1ccccc1)n1cccc1CO | > 100 µM (inactive) | > 100 µM (inactive) | > 100 µM (inactive) | > 100 µM (inactive) | > 100 µM (inactive) | > 100 µM (inactive) | > 100 µM (inactive) | > 100 µM (inactive) | > 100 µM (inactive) | > 100 µM (inactive) | > 100 µM (inactive) | > 100 µM (inactive) | > 100 µM (inactive) | > 100 µM (inactive) | > 100 µM (inactive) | > 100 µM (inactive) | > 100 µM (inactive) | > 100 µM (inactive) | > 100 µM (inactive) | > 100 µM (inactive) |
| Fc1nc(Sc2ncnc3nc[nH]c23)nc(-c2c3ccccc3c3sc4ccccc4n23)n1 | > 100 µM (inactive) | > 100 µM (inactive) | > 100 µM (inactive) | > 100 µM (inactive) | > 100 µM (inactive) | > 100 µM (inactive) | > 100 µM (inactive) | 85.5 µM (inactive) | > 100 µM (inactive) | > 100 µM (inactive) | > 100 µM (inactive) | > 100 µM (inactive) | > 100 µM (inactive) | > 100 µM (inactive) | > 100 µM (inactive) | 43.3 µM (inactive) | > 100 µM (inactive) | > 100 µM (inactive) | > 100 µM (inactive) | > 100 µM (inactive) |
| CC1=C[C@@H](C)C[C@]2(C)CC[C@H](O2)[C@]23CC[C@](CO)(C[C@H](O2)[C@@H]2O[C@@](C)(CC2=O)[C@@H](O)[C@H]2CC[C@@]4(CCC[C@@H](O4)[C@H](C)C(=O)O[C@H]4C[C@H]([C@]5(O)OCC[C@H](C)[C@@H]5O)O[C@H]4C=C1)O2)O3 | 0.0294 µM (active) | 0.00843 µM (active) | 0.0177 µM (active) | 0.0562 µM (active) | 0.116 µM (active) | 0.0513 µM (active) | 0.0435 µM (active) | 0.0124 µM (active) | 0.0225 µM (active) | 0.00724 µM (active) | 0.757 µM (active) | 0.00373 µM (active) | 0.00386 µM (active) | 0.0166 µM (active) | 0.142 µM (active) | 0.0258 µM (active) | 0.00192 µM (active) | 0.013 µM (active) | 0.0906 µM (active) | 0.0142 µM (active) |
